Key:
Anas platyrhynchos = settings: oral
Apis mellifera = settings: acute, duration: 24 hours, mortality
Bibionidae = settings: chronic/long-term; duration: 28 days
Daphnia magna = settings: chronic/long-term; duration: 21 days
Folsomia candida = settings: chronic/long-term; duration: 28 days; reproduction
Neomysis kadiakensis = settings: acute; duration: 96 hours; mortality
Tagia sp. = settings: chronic/long-term; duration: 56 days; reproduction

## CC[C@H](C)[C@H]1O[C@]2(C=C[C@@H]1C)C[C@@H]1C[C@@H](C/C=C(\C)[C@@H](O[C@H]3C[C@H](OC)[C@@H](O[C@H]4C[C@H](OC)[C@@H](O)[C@H](C)O4)[C@H](C)O3)[C@@H](C)/C=C/C=C3\CO[C@@H]4[C@H](O)C(C)=C[C@@H](C(=O)O1)[C@]34O)O2.CO[C@H]1C[C@H](O[C@H]2[C@H](C)O[C@@H](O[C@@H]3/C(C)=C/C[C@@H]4C[C@@H](C[C@]5(C=C[C@H](C)[C@@H](C(C)C)O5)O4)OC(=O)[C@@H]4C=C(C)[C@@H](O)[C@H]5OC/C(=C\C=C\[C@@H]3C)[C@]54O)C[C@@H]2OC)O[C@@H](C)[C@@H]1O [Abamectin]
Anas platyrhynchos; acute, unspecified, mortality
  LD50: 26 mg/kg-day
Anas platyrhynchos; reproductive, feed
  NOEC: 6 mg/kg
Apis mellifera; dermal
  LD50: 0.001 µg/piece
Apis mellifera; oral, unspecified
  LD50: 0.004 µg/piece
Bibionidae
  NOEC: 3.3 µg/kg
Daphnia magna
  NOEC: 0.0067 µg/L
Folsomia candida
  NOEC: 0.04 mg/kg
Neomysis kadiakensis
  LC50: 0.02 ng/mL
Oncorhynchus mykiss; acute, duration: 96 hours, mortality
  LC50: 2.5 ng/mL
Oncorhynchus mykiss; chronic/long-term, duration: 72 days
  NOEC: 0.52 µg/L
Rattus norvegicus; acute, oral, M, mortality
  LD50: 8.7 mg/kg-day
Rattus norvegicus; developmental, development
  NOAEL: 0.12 mg/kg-day
Tagia sp.
  NOEC: < 0.036 mg/kg
